Data on seven compounds can be found in PubChem BioAssay (NCI).

In general, GI50 refers to the concentration that inhibits growth by half. One may read the TGI as the concentration giving total growth inhibition. Lower therefore signals greater sensitivity of the cells.

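Cells were grown in 96-well plates and exposed to each compound for 48 hours at five concentrations; endpoints were interpolated linearly between bracketing concentrations, or set to the highest concentration if not reached. GI50 = concentration required for 50% inhibition of growth. TGI: concentration producing complete growth inhibition.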

Test systems include CAKI-1 renal; CCRF-CEM leukemia; DU-145 prostate; HOP-92 NSCLC; HS 578T breast; KM12 colon; MDA-MB-231 breast; RXF 393 renal; SK-MEL-28 melanoma; UO-31 renal.
Assay in all cases: DTP human tumour cell line panel, 48 h

Turning to `Oc1c(-c2cc(C(F)(F)F)[nH]n2)cc(Cl)c(OCc2ccc(Cl)cc2)c1-c1ccc(Cl)c(C(F)(F)F)c1`, the GI50 is 0.514 µM with CAKI-1 renal; 0.192 µM in the assay with CCRF-CEM leukemia; 1.15 µM with DU-145 prostate; 0.111 µM in the assay with HOP-92 NSCLC; 0.344 µM with HS 578T breast; 0.862 µM with KM12 colon. For the same compound, the GI50 in the assay on MDA-MB-231 breast is 0.46 µM; in the assay with RXF 393 renal, 0.226 µM; in the assay on SK-MEL-28 melanoma it was 0.392 µM; with UO-31 renal it was 0.818 µM. Besides, the TGI is 2.92 µM in the assay on CAKI-1 renal; 4.77 µM in the assay with CCRF-CEM leukemia; 6.39 µM in the assay with DU-145 prostate; 0.542 µM with HOP-92 NSCLC; 2.85 µM in the assay on HS 578T breast; 2.66 µM in the assay on KM12 colon. Also, the TGI with MDA-MB-231 breast stood at 3.07 µM; in the assay with RXF 393 renal it was 1.67 µM; in the assay on SK-MEL-28 melanoma it was 2.13 µM; in the assay with UO-31 renal, 2.21 µM.

Take `COc1cc(C(=O)c2cc(C)c3[nH]c4ccc(O)cc4c3c2C)cc(OC)c1OC`: the GI50 with CAKI-1 renal was under 0.01 µM; in the assay on CCRF-CEM leukemia, 0.0254 µM; in the assay on DU-145 prostate, 0.0351 µM; in the assay on HOP-92 NSCLC it was 0.944 µM; in the assay with HS 578T breast, 0.0141 µM; in the assay on KM12 colon, under 0.0127 µM. The GI50 is 0.0355 µM with MDA-MB-231 breast, under 0.01 µM with RXF 393 renal, 3.66 µM with SK-MEL-28 melanoma and 0.269 µM in the assay on UO-31 renal. Also, the TGI in the assay with CAKI-1 renal is over 47.6 µM; in the assay on CCRF-CEM leukemia, over 100 µM; with DU-145 prostate it was over 26.5 µM; with HOP-92 NSCLC, over 100 µM; with HS 578T breast it was over 100 µM; in the assay on KM12 colon, 23.8 µM. Besides, the TGI with RXF 393 renal is 3.11 µM; in the assay on SK-MEL-28 melanoma it was over 100 µM; with UO-31 renal, over 100 µM.

As to `CCc1c(C)nc2sc3c(N)ncnc3c2c1C`, the GI50 with CAKI-1 renal is over 19.6 µM; in the assay with CCRF-CEM leukemia it was over 25 µM; in the assay on DU-145 prostate it was over 25 µM; in the assay on HOP-92 NSCLC, over 25 µM; in the assay on HS 578T breast, over 25 µM; with KM12 colon, over 25 µM. Also, the GI50 in the assay with MDA-MB-231 breast, in the assay on RXF 393 renal, in the assay with SK-MEL-28 melanoma and with UO-31 renal was over 25 µM throughout. Further, the TGI in the assay with CAKI-1 renal, in the assay with CCRF-CEM leukemia, with DU-145 prostate, in the assay with HOP-92 NSCLC, with HS 578T breast and with KM12 colon was over 25 µM throughout. Moreover, the TGI in the assay on MDA-MB-231 breast, with RXF 393 renal, with SK-MEL-28 melanoma and in the assay on UO-31 renal was over 25 µM in each case.

In the case of `Cc1ccncc1C(N)=O`, the GI50 with CAKI-1 renal, in the assay on CCRF-CEM leukemia, in the assay with DU-145 prostate, with HOP-92 NSCLC, in the assay with HS 578T breast and with KM12 colon was over 100 µM each time. The GI50 with MDA-MB-231 breast, with RXF 393 renal, in the assay with SK-MEL-28 melanoma and in the assay with UO-31 renal was over 100 µM throughout. Further, the TGI in the assay with CAKI-1 renal, in the assay on CCRF-CEM leukemia, in the assay on DU-145 prostate, with HOP-92 NSCLC, in the assay with HS 578T breast and in the assay on KM12 colon was over 100 µM in each case. Also, the TGI in the assay with MDA-MB-231 breast, in the assay with RXF 393 renal, in the assay on SK-MEL-28 melanoma and in the assay with UO-31 renal was over 100 µM in each case.

As for `COc1ccc(Nc2ccnc(N3CCN(c4ccnc5cc(Cl)ccc45)CC3)n2)cc1`, the GI50 in the assay on CAKI-1 renal was 0.576 µM; in the assay on CCRF-CEM leukemia, 1.74 µM; in the assay on DU-145 prostate it was 2.59 µM; in the assay on HOP-92 NSCLC, 0.32 µM; with HS 578T breast, 1.4 µM; in the assay with KM12 colon it was 1.01 µM. Further, the GI50 is 1.51 µM in the assay on MDA-MB-231 breast, 1.31 µM with RXF 393 renal, 1.21 µM in the assay with SK-MEL-28 melanoma and 0.629 µM with UO-31 renal. The TGI with CAKI-1 renal was 3.92 µM; in the assay with CCRF-CEM leukemia, over 34.2 µM; with DU-145 prostate it was over 30.5 µM; in the assay with HOP-92 NSCLC, 4.5 µM; with HS 578T breast, 9.06 µM; with KM12 colon, 4.16 µM. The TGI with MDA-MB-231 breast was over 29.8 µM; with RXF 393 renal, 6.6 µM; in the assay with SK-MEL-28 melanoma, 4.89 µM; in the assay with UO-31 renal it was 4.29 µM.

Consider `N#CCCNc1nonc1-c1nc2ccccc2n1CC(=O)c1ccc(NC(=O)[C@@H](N)CCCCN)cc1`, for which the GI50 with CAKI-1 renal was 0.061 µM; with CCRF-CEM leukemia, 0.0368 µM; in the assay on DU-145 prostate, 0.0323 µM; in the assay on HOP-92 NSCLC, 0.487 µM; in the assay with HS 578T breast it was 0.908 µM; in the assay on KM12 colon it was 0.0279 µM. In addition, the GI50 in the assay with MDA-MB-231 breast was 0.0599 µM; in the assay with RXF 393 renal, 0.0353 µM; with UO-31 renal, 0.282 µM. The TGI with CAKI-1 renal is over 100 µM; in the assay with CCRF-CEM leukemia, over 100 µM; with DU-145 prostate, 0.0994 µM; in the assay with HOP-92 NSCLC, over 100 µM; in the assay with HS 578T breast, over 100 µM; with MDA-MB-231 breast it was over 100 µM. The TGI with RXF 393 renal and in the assay with UO-31 renal was over 100 µM in each case.

Take `Cc1ccc(C2C3Cc4ccccc4C3=NN2c2ccc(S(=O)(=O)/N=c3\scc(-c4ccccc4)n3-c3ccccc3)cc2)cc1` (centres undefined): the GI50 in the assay with CAKI-1 renal was 18.6 µM; in the assay with CCRF-CEM leukemia it was 17.1 µM; in the assay with DU-145 prostate it was 24.7 µM; in the assay with HOP-92 NSCLC, 18.8 µM; with HS 578T breast, 17.2 µM; in the assay on KM12 colon, 20.2 µM. Also, the GI50 in the assay on MDA-MB-231 breast is 14.9 µM; with RXF 393 renal, 24.8 µM; in the assay with UO-31 renal it was 18.4 µM. Further, the TGI in the assay on CAKI-1 renal amounted to 44.7 µM; in the assay on CCRF-CEM leukemia, 44 µM; in the assay with DU-145 prostate it was 81.9 µM; in the assay with HOP-92 NSCLC, 41.7 µM; in the assay with HS 578T breast it was 44.8 µM; in the assay with KM12 colon it was 65.2 µM. Besides, the TGI in the assay on MDA-MB-231 breast stood at 32.7 µM; in the assay on RXF 393 renal it was 64.6 µM; with UO-31 renal, 55.4 µM.
